Test results from ChEMBL document CHEMBL1124789, “Angiotensin-converting enzyme inhibitors. 9. Novel [[N-(1-carboxy-3-phenylpropyl)amino]acyl]glycine derivatives with diuretic activity” (J Med Chem, 1990).
Values belong to the compound of their own block, whether it stands above or below them. Active and inactive are the calls of the source. The rule behind the calls is not given here.

What was measured:
[1] = molecular target: T1, Angiotensin-converting enzyme (Rattus norvegicus) (UniProt P47820); assay: In vitro inhibitory activity against Angiotensin I converting enzyme at 100 uM concentration.
T1 sequence (whole entry): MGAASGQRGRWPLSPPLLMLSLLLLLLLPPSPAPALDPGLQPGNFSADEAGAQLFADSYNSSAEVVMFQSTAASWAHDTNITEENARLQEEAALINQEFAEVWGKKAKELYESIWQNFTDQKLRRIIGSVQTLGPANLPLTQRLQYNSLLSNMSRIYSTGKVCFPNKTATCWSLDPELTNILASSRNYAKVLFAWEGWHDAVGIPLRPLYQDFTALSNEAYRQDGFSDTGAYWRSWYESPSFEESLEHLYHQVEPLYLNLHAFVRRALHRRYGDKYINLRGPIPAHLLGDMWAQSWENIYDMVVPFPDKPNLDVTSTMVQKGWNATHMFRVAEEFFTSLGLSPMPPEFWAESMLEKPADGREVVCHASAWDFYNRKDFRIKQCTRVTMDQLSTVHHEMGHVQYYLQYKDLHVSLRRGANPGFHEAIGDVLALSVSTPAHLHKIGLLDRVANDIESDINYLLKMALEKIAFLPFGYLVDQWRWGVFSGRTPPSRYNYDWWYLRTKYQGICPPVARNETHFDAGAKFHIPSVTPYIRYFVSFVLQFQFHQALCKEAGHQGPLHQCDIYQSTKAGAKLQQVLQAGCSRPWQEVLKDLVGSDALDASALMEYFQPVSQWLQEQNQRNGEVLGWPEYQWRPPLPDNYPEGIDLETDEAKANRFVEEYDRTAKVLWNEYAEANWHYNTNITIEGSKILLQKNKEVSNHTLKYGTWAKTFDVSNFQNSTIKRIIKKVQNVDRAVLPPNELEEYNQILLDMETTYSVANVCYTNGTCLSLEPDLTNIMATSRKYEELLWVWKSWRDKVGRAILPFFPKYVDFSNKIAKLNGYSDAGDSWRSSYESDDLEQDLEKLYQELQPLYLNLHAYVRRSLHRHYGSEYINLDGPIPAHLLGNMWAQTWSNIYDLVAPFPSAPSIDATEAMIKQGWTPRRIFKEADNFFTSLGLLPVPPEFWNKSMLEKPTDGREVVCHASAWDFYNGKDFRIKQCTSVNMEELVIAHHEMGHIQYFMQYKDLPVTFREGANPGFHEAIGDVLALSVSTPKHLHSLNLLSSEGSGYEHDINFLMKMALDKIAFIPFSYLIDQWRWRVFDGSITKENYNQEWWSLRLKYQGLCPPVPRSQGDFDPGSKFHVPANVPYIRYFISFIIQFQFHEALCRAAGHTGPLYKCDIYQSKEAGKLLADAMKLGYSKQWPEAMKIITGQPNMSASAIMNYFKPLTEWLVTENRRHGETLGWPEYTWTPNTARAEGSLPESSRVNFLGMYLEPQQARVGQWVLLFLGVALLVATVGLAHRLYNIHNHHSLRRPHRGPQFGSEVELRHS

Rattus norvegicus = species: Rattus norvegicus; assay: Duration of action of the compound; format: functional
[2] = molecular target: T1, Angiotensin-converting enzyme (Rattus norvegicus); assay: Inhibition of Angiotensin I converting enzyme at the dose of 30 mg/kg (po) in rat; format: organism-based; design: dose 30 mg/kg; scale not given: the % may be the effect or the level left
Canis familiaris [3] = assay: Diuretic activity (po);NI- No Increase; format: functional, organism-based; conditions: Canis lupus familiaris; Urine
[4] = molecular target: Angiotensin-converting enzyme (Homo sapiens) (UniProt P12821); assay: […] inhibitory activity against angiotensin I converting enzyme (ACE) in dog
Sequence of Angiotensin-converting enzyme (Homo sapiens) (P12821 whole entry): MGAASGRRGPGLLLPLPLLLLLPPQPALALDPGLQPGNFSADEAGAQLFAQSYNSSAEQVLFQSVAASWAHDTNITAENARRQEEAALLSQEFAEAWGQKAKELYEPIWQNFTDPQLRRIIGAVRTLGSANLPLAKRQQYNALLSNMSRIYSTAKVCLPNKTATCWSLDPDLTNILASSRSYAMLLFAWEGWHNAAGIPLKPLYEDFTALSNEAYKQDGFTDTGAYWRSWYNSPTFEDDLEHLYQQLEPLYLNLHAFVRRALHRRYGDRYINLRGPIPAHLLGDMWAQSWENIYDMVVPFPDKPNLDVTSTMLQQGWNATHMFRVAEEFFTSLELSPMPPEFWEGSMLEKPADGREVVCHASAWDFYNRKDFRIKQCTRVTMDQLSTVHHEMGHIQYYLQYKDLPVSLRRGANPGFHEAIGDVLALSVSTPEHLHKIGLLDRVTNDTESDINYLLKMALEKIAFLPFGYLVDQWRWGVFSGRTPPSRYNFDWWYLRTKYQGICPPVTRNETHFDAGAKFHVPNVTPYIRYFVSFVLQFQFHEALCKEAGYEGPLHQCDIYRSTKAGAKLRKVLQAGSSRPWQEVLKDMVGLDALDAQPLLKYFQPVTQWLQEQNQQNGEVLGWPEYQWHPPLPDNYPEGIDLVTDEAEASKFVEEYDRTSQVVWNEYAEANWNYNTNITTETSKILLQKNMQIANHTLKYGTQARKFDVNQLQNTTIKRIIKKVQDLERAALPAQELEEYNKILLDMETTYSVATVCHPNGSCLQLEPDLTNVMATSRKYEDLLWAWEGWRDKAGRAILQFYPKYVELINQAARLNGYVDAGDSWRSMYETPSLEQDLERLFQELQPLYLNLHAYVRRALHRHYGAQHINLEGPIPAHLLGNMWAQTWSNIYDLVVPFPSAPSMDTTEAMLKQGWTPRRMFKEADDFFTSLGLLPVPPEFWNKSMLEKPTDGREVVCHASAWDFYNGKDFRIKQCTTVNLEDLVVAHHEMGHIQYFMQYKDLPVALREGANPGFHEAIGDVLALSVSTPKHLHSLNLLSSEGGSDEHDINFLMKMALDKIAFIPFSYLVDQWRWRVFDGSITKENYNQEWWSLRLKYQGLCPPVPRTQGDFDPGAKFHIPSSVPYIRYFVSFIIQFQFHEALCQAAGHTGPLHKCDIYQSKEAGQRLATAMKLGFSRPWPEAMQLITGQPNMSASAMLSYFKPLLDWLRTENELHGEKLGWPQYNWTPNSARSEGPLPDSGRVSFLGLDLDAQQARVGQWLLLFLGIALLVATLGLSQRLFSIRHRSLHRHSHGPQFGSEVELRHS

Canis familiaris [5] = assay: Diuretic activity (ip) was tested in dogs;ND- Natriuresis and diuresis; format: functional, organism-based; conditions: Canis lupus familiaris; Urine
Canis familiaris [6] = assay: Maximum percent decrease in blood pressure at the dose of 100 mg/kg ip; format: functional, Canis lupus familiaris; conditions: route intraperitoneal
Canis familiaris [7] = assay: Diuretic activity (ip) was tested in dogs; NI-No Increase; format: functional, organism-based; conditions: Canis lupus familiaris; Urine
Canis familiaris [8] = assay: Maximum percent decrease in blood pressure at the dose of 1.0 mg/kg ip; format: functional, Canis lupus familiaris; conditions: route intraperitoneal

inhibition [1]: 40%
Activity [2]: 50%
SMILES: CCOC(=O)[C@H](CCc1ccccc1)N[C@@H](C)C(=O)N(CC(=O)O)NC(=O)c1ccc(Cl)c(S(N)(=O)=O)c1.Cl
Duration (Rattus norvegicus): < 1 h
Activity (Canis familiaris [3]): No increase

ED50 [4]: > 100 mg/kg
SMILES: NS(=O)(=O)c1cc2c(cc1Cl)NCNS2(=O)=O [HYDROCHLOROTHIAZIDE]
Activity (Canis familiaris [5]): Active
Decrease (Canis familiaris [6]): 0%

SMILES: CCOC(=O)[C@H](CCc1ccccc1)N[C@@H](C)C(=O)N1CCC[C@H]1C(=O)O [ENALAPRIL]
Activity (Canis familiaris [7]): inactive
Decrease (Canis familiaris [8]): 38%
